US11926596B2, “Inhibitors of Rho associated coiled-coil containing protein kinase” (KADMON CORPORATION, LLC, priority 2017, dated 2024)
Read-outs that look alike come from different tables or passages of the source. One block for each compound: values may come before it.

What was measured:
[1] = cited from earlier work
sAPPP = details: direct i.p. injection into hippocampus, rodent model of AD; cited from earlier work
[2] = tested on: luciferase reporter driven by the human ACTA2 gene promoter in NIH3T3 cells; experiment: NIH3T3 cells Acta2-promoter driven-luciferase assay; type: cell-based; details: plus TGF 1, 24 hr, read-out: NIH3T3, Acta2-luc, IC50
Description: NIH3T3 cells Acta2-promoter driven-luciferase assay: A NIH3T3 cell line stably expressing a luciferase reporter driven by the human ACTA2 gene promoter (−1000-1 bp) was established (NIH3T3-Acta2-luciferase). The cells were plated to confluence and treated with the test compounds plus TGF 1 for 24 hr. Cells were then lysed and luciferase activity was measured using the LightSwitch luciferase kit from Active Motif.

[3] = molecular target: T1, recombinant ROCK2 (amino acids 1-552) (Homo sapiens, UniProt O75116); experiment: Z'-lyte kinase assay, ROCK2; type: biochemical
T1 construct: ROCK2 (amino acids 1-552) proteins were purchased from ThermoFisher Scientific; purchased ThermoFisher Scientific
T1 sequence (O75116 1-552): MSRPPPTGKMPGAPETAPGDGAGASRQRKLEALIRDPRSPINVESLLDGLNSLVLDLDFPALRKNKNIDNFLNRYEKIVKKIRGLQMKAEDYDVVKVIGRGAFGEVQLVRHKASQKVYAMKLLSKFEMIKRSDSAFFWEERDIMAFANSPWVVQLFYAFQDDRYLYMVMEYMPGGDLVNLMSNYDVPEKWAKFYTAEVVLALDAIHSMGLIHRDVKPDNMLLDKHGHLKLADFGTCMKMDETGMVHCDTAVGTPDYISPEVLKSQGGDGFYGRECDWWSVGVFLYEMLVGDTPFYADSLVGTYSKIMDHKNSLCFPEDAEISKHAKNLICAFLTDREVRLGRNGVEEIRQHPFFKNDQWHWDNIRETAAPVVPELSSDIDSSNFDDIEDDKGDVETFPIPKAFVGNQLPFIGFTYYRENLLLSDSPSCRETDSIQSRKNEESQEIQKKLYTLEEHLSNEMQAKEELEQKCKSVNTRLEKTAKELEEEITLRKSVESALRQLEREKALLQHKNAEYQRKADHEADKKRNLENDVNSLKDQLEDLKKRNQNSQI
Description: (§1) Determination of compounds ROCK inhibitory activity in vitro (Z'lyte assay): recombinant ROCK1 (amino acids 1-535) and ROCK2 (amino acids 1-552) proteins were purchased from ThermoFisher Scientific. Compounds activities were measured by Z′-lyte kinase kit (ThermoFisher Scientific) and IC50s were calculated.
(§2) Table 2, below, provides in vitro and cellular inhibition of ROCKs by compounds of the invention. Compounds activities were measured by Z′-lyte kinase kit (ThermoFisher Scientific). […] IC50s were calculated using the GraphPad Prism software with kinase activities data that were collected from points 9 serial dilution of compounds treatment. The ROCK inhibition in A7R5 cells and NIH3T3 (Acta2-Luc) cells was performed as described above.

[4] = tested on: phospho-myosin light chains (ppMlc, Thr18/Ser19) in A7R5 cells; experiment: A7R5 in-cell ELISA, phospho-myosin light chain; type: cell-based, rat; details: Rattus norvegicus
Description: Determination of compounds ROCK inhibitory activity in A7R5 cells: rat aortic smooth muscle cell line A7R5 cells were maintained and treated in DMEM medium with 10% of fetal bovine serum. Cells were seeded with density of 5,000 cells/well in 96-well plates for 24 hours and subsequently treated 90 min with testing compounds. Cells were then fixed and processed according to the In-Cell ELISA Colorimetric Detection Kit manual (Thermo Scientific). Cellular phospho-myosin light chains (ppMlc, Thr18/Ser19) levels were determined after treatments of DMSO control or test compounds using the In-Cell ELISA kit. The percent inhibition rate was calculated by applying the data obtained with 1 μM (or 10 μM) compound treatment to the formula, [1-(compound/DMSO)]×100%. ppMlc data obtained with 9 points 2-fold serial dilution of compounds were applied to the nonlinear regression curve fit function of the GraphPad Prism software to calculate the In cell IC50s.
A7R5 cells were treated with 9 points 2 fold serial dilution of compounds and ppMlc (T18/S19) levels were determined in order to calculate cellular IC50s of the compounds.
Two steps of measurements were adopted for pMLC/A7R5 IC50. Percent inhibition rates were calculated with a single dose (1 μM or 10 μM) compounds treatment to screen for active compounds and then cellular IC50s were measured only in compounds that have over 50% of inhibition rates.

[5] = molecular target: T2, recombinant ROCK1 (amino acids 1-535) (Homo sapiens, UniProt Q13464); experiment: Z'-lyte kinase assay, ROCK1; type: biochemical
T2 construct: recombinant ROCK1 (amino acids 1-535) and ROCK2; purchased ThermoFisher Scientific
T2 sequence (Q13464 1-535): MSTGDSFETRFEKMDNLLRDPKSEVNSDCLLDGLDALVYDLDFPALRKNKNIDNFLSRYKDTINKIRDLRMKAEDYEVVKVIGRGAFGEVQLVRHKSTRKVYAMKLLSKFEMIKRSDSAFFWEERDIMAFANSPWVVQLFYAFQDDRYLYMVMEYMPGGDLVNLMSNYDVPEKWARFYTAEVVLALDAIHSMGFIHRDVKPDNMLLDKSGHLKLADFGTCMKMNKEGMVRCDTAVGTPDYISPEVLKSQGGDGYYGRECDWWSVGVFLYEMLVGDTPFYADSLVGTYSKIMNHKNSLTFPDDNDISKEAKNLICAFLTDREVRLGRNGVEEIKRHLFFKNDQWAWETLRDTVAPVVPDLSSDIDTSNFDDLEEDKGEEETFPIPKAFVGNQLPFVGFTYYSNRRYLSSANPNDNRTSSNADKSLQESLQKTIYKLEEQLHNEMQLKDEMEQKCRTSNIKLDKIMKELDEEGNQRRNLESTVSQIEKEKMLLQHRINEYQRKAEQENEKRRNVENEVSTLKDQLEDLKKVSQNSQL
Description: as §1, §2

[6] = Brain and plasma concentrations in mouse by HPLC/MS/MS after 2.5 mg/kg IV; type: in vivo; details: for concentration at 0.25 h / concentration at 2 h: iv; for Kp at 0.25 h / Kp at 2 h: brain/plasma; for Kp at 0.25 h: read-out: Mean Brain/Plasma Ratio at 0.25 hr; for Kp at 2 h: read-out: Mean Brain/Plasma Ratio at 2 hr
Description: Brain and plasma concentrations of select ROCK inhibitors were also evaluated in mouse by HPLC/MS/MS at 15 min and 2 hrs following 2.5 mg/kg IV drug administration.

[7] = tested on: Human oligodendrocyte/neuron progenitor cells; experiment: Human oligodendrocyte/neuron progenitor cell differentiation (Nestin/MAP2 staining); type: cell-based; details: cultured 2 & 14 days with or without inhibitor
Description: FIG. 3. Human oligodendrocyte/neuron progenitor cells were cultured in vitro with or without ROCK inhibitor (Example 2 compound) for 2 & 14 days. Nestin and MAP2 proteins were visualized by staining with commercial antibodies to identify different stages of neuronal cell differentiation.
Human oligodendrocyte/neuron progenitor cells were cultured in vitro with or without ROCK inhibitor for 2 & 14 days. Nestin and MAP2 proteins were visualized by staining with commercial antibodies to identify different stages of neuronal cell differentiation.

[8] = Mouse pharmacokinetic study, plasma and brain distribution 2 hours after dosing; type: in vivo; details: for concentration at 2 h / Kp at 2 h: 2 hours post-dose; for Kp at 2 h: brain/plasma, read-out: Brain/Plasma Ratio
Description: In a mouse pharmacokinetic study, 2 hours after dosing, animal tissues were harvested to determine the compound distribution.

[9] = tested on: rat oligodendrocytes with rat dorsal root ganglia (DRG) explants; experiment: Rat oligodendrocytes with rat dorsal root ganglia (DRG) explants co-culture; type: cell-based
Description: At the same time, the ROCK inhibitor also facilitated axonal support of oligodentrocye by organized manner, which was visualized by staining the mature oligodendrocyte marker MBP.

[10] = tested on: ROCK target MYPT1 phosphorylation in HCT116 ROCK1KO and ROCK2KO cells; experiment: pMypt (T853) western blotting in HCT116 ROCK1KO and ROCK2KO cells; type: cell-based; details: 110 nM, 90 min
Description: FIG. 2. […] HCT116 cells with either a ROCK1 or ROCK2 knockout (ROCK1KO and ROCK2KO, respectively) were treated with the inhibitor for 90 min and pMypt (T853) levels were visualized by western blotting.
A CRISPR/CAS9 system was used to create HCT116 cells containing a knock out for either ROCK1 or ROCK2. The ROCK1KO and ROCK2KO cells were treated with the Example 2 compound for 90 min and pMypt (T853) levels were visualized by western blotting.

[11] = 1.5 h, A7R5 cells, 90 min, read-out: pMLC IC50 A7R5
[12] = A7R5 cells, ppMlc (T18/S19), 9 points 2 fold serial dilution, read-out: ppMIc IC50
[13] = brain, 2.5 mg/kg, read-out: Mean Conc. at 0.25 hr, Brain
[14] = plasma, 2.5 mg/kg, read-out: Mean Conc. at 0.25 hr, Plasma
[15] = plasma, 2.5 mg/kg, read-out: Mean Conc. at 2 hr, Plasma

SMILES: CN(C)CCOc1cc(-c2cn[nH]c2)ccc1NC(=O)C1COc2ccccc2O1 (stereo not drawn) [SR3677]
brain penetration ([1]; in vivo): lack of brain penetration | half-life ([1]; oral PK properties): < 1 h | F (oral) ([1]; oral): 5% | effect on sAPPP (sAPPP): lowering sAPPP

IC50 [3]: 10 nM | IC50 [4, 11]: 124 nM | IC50 [4, 12]: 124 nM | IC50 [5]: 13 nM | concentration at 0.25 h [6, 13]: 853 ng/g | concentration at 2 h ([6]; brain, 2.5 mg/kg, read-out: Mean Conc. at 2 hr, Brain): 288 ng/g | Kp at 0.25 h [6]: 2.17 | Kp at 2 h [6]: 6.99 | concentration at 0.25 h [6, 14]: 394 ng/mL | concentration at 2 h [6, 15]: 41.4 ng/mL
SMILES: CNC(C(=O)Nc1ccc2[nH]ncc2c1)c1ccc(Oc2cccc(OC)c2)cc1 (stereo not drawn) [Example 15, N-(1H-indazol-5-yl)-2-(4-(3-methoxyphenoxy)phenyl)-2-(methylamino)acetamide]
IC50 [2]: 219 nM

IC50 [3]: 21 nM | inhibition at 3 µM ([3]; 3 μM, read-out: ROCK2 % inh): 98.7% | BBB penetrant property ([8]; 2 hours after dosing): excellent | concentration at 2 h ([8]; brain, IV 10 mg base/kg, read-out: Brain Concentration): 699 ng/g | concentration at 2 h ([8]; brain, PO 10 mg base/kg, read-out: Brain Concentration): 700 ng/g | concentration at 2 h ([8]; brain, PO 30 mg base/kg, read-out: Brain Concentration): 2860 ng/g | concentration at 2 h ([8]; brain, PO 100 mg base/kg, read-out: Brain Concentration): 19400 ng/g | Kp at 2 h ([8]; IV 10 mg base/kg): 3.31 | Kp at 2 h ([8]; PO 10 mg base/kg): 1.73 | Kp at 2 h ([8]; PO 30 mg base/kg): 2.04 | Kp at 2 h ([8]; PO 100 mg base/kg): 2.08 | concentration at 2 h ([8]; plasma, IV 10 mg base/kg, read-out: Plasma Concentration): 211 ng/mL | concentration at 2 h ([8]; plasma, PO 10 mg base/kg, read-out: Plasma Concentration): 405 ng/mL | concentration at 2 h ([8]; plasma, PO 30 mg base/kg, read-out: Plasma Concentration): 1400 ng/mL | concentration at 2 h ([8]; plasma, PO 100 mg base/kg, read-out: Plasma Concentration): 9290 ng/mL | IC50 [4, 11]: 304 nM | IC50 [4, 12]: 304 nM | IC50 ([4]; pMLC in A7R5 cells, read-out: cellular ROCK inhibition IC50): 252 nM | IC50 [5]: 25 nM | inhibition at 3 µM ([5]; 3 μM, read-out: ROCK1 % inh): 98.8%
SMILES: CNC(C(=O)Nc1ccc2[nH]ncc2c1)c1ccccc1 (stereo not drawn) [Example 2, N-(1H-indazol-5-yl)-2-(methylamino)-2-phenylacetamide]
IC50 [2]: 885 nM | mature neuronal cell marker MAP2 expression [7]: significantly facilitated | neurite outgrowth [7]: improved | axonal support of oligodendrocyte (MBP / neurofilament staining) [9]: facilitated | cytoskeletal organization / myelin segments (neurofilament staining) [9]: producing many shorter ordered myelin segments | pMypt (T853) levels, MYPT1 phosphorylation [10]: efficiently blocked

IC50 [3]: 17 nM | inhibition at 1 µM ([3]; @ 1 μM, read-out: ROCK2 % inh): 99.5% | IC50 [4, 11]: 304 nM | IC50 [5]: 3.2 nM | Mean Conc. at 0.25 hr, Brain ([6]; 2.5 mg/kg): 541 ng/g | concentration at 0.25 h [6, 13]: 566 ng/g | Kp at 0.25 h [6]: 1.33 | Kp at 2 h [6]: 8.41 | concentration at 0.25 h [6, 14]: 427 ng/mL | concentration at 2 h [6, 15]: 2.14 ng/mL
SMILES: CNC(C(=O)Nc1ccc2[nH]ncc2c1)c1cccc(OC)c1 (stereo not drawn) [Example 41, N-(1H-indazol-5-yl)-2-(3-methoxyphenyl)-2-(methylamino)acetamide]
IC50 [2]: 539 nM

IC50 [3]: 135 nM | IC50 [4, 11]: 461 nM | IC50 [4, 12]: 461 nM | IC50 [5]: 8.3 nM
SMILES: CNC(C(=O)Nc1ccc2[nH]ncc2c1)c1ccccc1Cl (stereo not drawn) [Example 47, 2-(2-chlorophenyl)-N-(1H-indazol-5-yl)-2-(methylamino)acetamide]
IC50 [2]: 659 nM
